Measured values taken from a melting point compilation (Tetko et al.; mined from patent text by program, amines drawn as free bases though some values may be those of a salt).

Point of comparison: O=C1CCC(c2ccccc2)(c2ccccc2)C2CN(C(Cc3ccccc3)=NCc3ccccc3)CC12 (stereo not given), melting point 165 °C. Against it:
- COCCN(CCOC)c1ccc(Nc2ncc3c(C)c(Br)c(=O)n(C4CCCC4)c3n2)nc1 — lower, 94 to 95 °C
- COc1ccc(OC2COc3ccc(OC(C)c4ccc5ccccc5n4)cc3C2O)cc1 (stereo not given) — lower, 81 to 85 °C
- CC(C)[C@H](NC(=O)OCc1ccccc1)C(=O)N[C@@H](Cc1ccccc1)[C@@H](O)[C@@H](O)[C@H](Cc1ccccc1)NC(=O)OC(C)(C)C — higher, 178 to 182 °C
- Cn1c(=O)[nH]c2nc3ccc(OCCCC(=O)NC4CCCCC4)cc3cc21 — higher, 282 to 284 °C
- C#CCN1CCCNC1=C[N+](=O)[O-] — lower, 157 to 158 °C
- O=C1C(=Cc2ccccc2)SC(=S)N1N=c1sc2ccccc2s1 — higher, 288 to 289 °C
- O=C(O)c1cnc(-c2ccccc2)c2ccccc12 — higher, 215 to 217 °C
- CCCCC(Oc1ccc(CCNS(=O)(=O)c2ccc(Cl)cc2)cc1)C(=O)O (stereo not given) — lower, 138 to 139 °C
- CCc1cc(Br)cc2c1C(=O)C(=O)N2 — higher, 229 to 230 °C
- CC(C)(C)C(=O)Nc1nc2[nH]c3cccc(Cl)c3c2c(=O)[nH]1 — higher, 186 to 190 °C
- CCOC(=O)NNc1ccc(-c2ccc(Cl)cc2)nn1 — higher, 190 to 192 °C
- CCCn1c(=O)c2[nH]c(-c3cc(C)n(CC(=O)Nc4ccc(OC)cc4)n3)nc2n(CCC)c1=O — higher, 293 to 296 °C
- CC=CCNc1ccc(Oc2nc(OC)cc(OC)n2)c(C(=O)OC)n1 — lower, 82 to 85 °C
- CCCCC1C=C(N)c2ncccc2N1CC(C)(C)O (stereo not given) — higher, 177 to 179 °C
- COc1cc2c(cc1OC)CN(CCCCc1ccc(NC(=O)c3cnc4ccccc4n3)cc1)CC2 — lower, 144 °C
- COc1ccc(Nc2ccc3c(c2)OCC(=O)N3)cc1 — higher, 174 to 175 °C
- COC(=O)C1Cc2c([nH]c3ccccc23)C(c2c(Cl)cccc2Cl)N1 (stereo not given) — lower, 102 to 105 °C
- Cn1ncc(C(=O)NN)c1S(N)(=O)=O — higher, 172 to 173 °C
- CCOC(=O)C1=C(C)NC(N=CCN(C)C)=C(C(=O)OCC)C1c1ccccc1 (stereo not given) — lower, 126 °C
- Cc1cccc(C2(CNC(=O)Nc3c(C(C)C)cccc3C(C)C)CCC2)c1 — lower, 148 to 151 °C
- CC(C)c1ncc(CN2C(=O)C3(COc4cc5c(cc43)OCO5)c3cccc(C(F)(F)F)c32)s1 (stereo not given) — lower, 101 to 103 °C
- CC12OCC(CO)(CO1)CO2 — lower, 110 to 112 °C
- O=c1cc(SCc2ccccc2)cco1 — lower, 105 to 106 °C
- CC(C)(C(=O)c1ccc(SCCO)cc1)N1CCOCC1 — lower, 62 to 64 °C
- O=C(Cc1ccccn1)N1CCN(C(=O)Oc2ccc(Oc3ccc(C(F)(F)F)cn3)cc2)CC1 — lower, 143 to 146 °C
- O=C1NN(C(=O)Nc2ccc(OCc3ccccc3)cc2)C(c2ccccc2)C1c1ccccc1 (stereo not given) — lower, 127 to 130 °C
- Cc1cc(Br)ccc1N=CN(C)SN(C)C=Nc1ccc(Br)cc1C — lower, 127 to 129 °C
- CCOC(=O)C1(Br)Oc2ccccc2OC1Br (stereo not given) — lower, 102 °C
- CCn1cc(C(=O)O)c(=O)c2cc(F)c(N3CCN(S(=O)(=O)c4ccc(OC)cc4)CC3)c(F)c21 — higher, 252 to 253 °C
- CCOCc1nc2cnc3ccccc3c2n1CCCCC(N)=O — lower, 157 to 158 °C
- CC(C)(C)C(=O)c1c[nH]c2ncc(-c3ccc(S(N)(=O)=O)cc3)nc12 — higher, 277 to 278 °C
- NCCCc1c[nH]c2ccc3c(=O)[nH]ccc3c12 — higher, 225 to 230 °C
- Cc1c(C(=O)O)cnn1-c1ccc(I)cc1 — higher, 225 °C
- CCC(=O)SCC(C)C(=O)N1C(C(=O)O)CC2CCCCC21 (stereo not given) — higher, 170 to 172 °C
- O=C(O)c1noc(-c2cnccc2C(F)(F)F)n1 — lower, 157 to 159 °C
- CCCCN(CCCC)c1ccc(C=Cc2ccc(C=CC3=C(C#N)C(=C(C#N)C#N)OC3(C)C)s2)c(O[Si](c2ccccc2)(c2ccccc2)C(C)(C)C)c1 — higher, 218 to 219 °C
- CCOC(=O)c1cn(C(=O)OCC(C)C)c2c(COC(C)=O)cc(C)cc2c1=O — lower, 101 to 103 °C
- CC(C)(C)OC(=O)c1ncn2c1C1C=CCN1C(=O)c1c(Cl)cccc1-2 (stereo not given) — higher, 227 to 229 °C
- COCC1CCCN1Cc1ccc2cc(NC(=O)c3ccc(-c4ccc(Cl)cc4)cc3)ccc2n1 (stereo not given) — higher, 172 to 174 °C
- NCC(=O)Nc1ccc(Cl)cc1C(=O)c1c(F)cccc1F — lower, 133 to 135 °C
- COc1cc(C)nc2ccc(NC(=O)C=Cc3ccccc3Cl)cc12 — higher, 228 to 229 °C
- CCOC(=O)c1ccc(C(=O)c2ccc(OC)cc2)cc1 — lower, 74 to 81 °C
- CC(=O)SCCC(=O)N1NC(=O)CC1C(=O)O (stereo not given) — higher, 205 to 207 °C
- O=[N+]([O-])c1ccc(Cc2nnco2)cc1 — lower, 104 to 105 °C
- Cn1c2c(c3c4c(N)nc(N)nc4ccc31)CCCC2 — higher, 288 to 292 °C
- CCOC(=O)C1=Cc2cc(-c3ccc(S(C)(=O)=O)cc3)ccc2OCC1 — lower, 150 to 153 °C
- COc1cc(Cc2cnc(N)nc2N)c(Cc2cnc(N)nc2N)cc1OC — higher, 280 °C
- CCOC(=O)c1cc2ccc(N(CC)CC)cc2oc1=O — lower, 77 to 78 °C
- COc1cc(F)ccc1-c1ccc(S(=O)(=O)N2c3ccccc3CC2C(=O)NCCOc2ccc(C(=O)OC(C)(C)C)cc2)cc1 (stereo not given) — lower, 86 °C
